Paper PMC6304418, “A Novel Compound Targeting Protease Receptor 1 Activators for the Treatment of Glioblastoma” (Frontiers in Neurology, 2018)
Entries after “also recorded” stand apart in the source; their conditions may differ. Where a SMILES comes first, the peptide text is derived from it. The star is where a group is joined. Tos = Cc1ccc(S(=O)(=O)*)cc1; CH2Cl = ClC*

Columns and labels:
[1] = SIXAC stability over time at 37°C, measured by its inhibition of thrombin; format: physicochemical; conditions: 400 μM SIXAC incubated and sampled, read-out inhibition of 0.05 U/ml thrombin
Method: Thrombin activity was assessed using a fluorogenic thrombin substrate (Bachem I-1560, excitation 360 nm; emission 465 nm). As previously described ([19], [36]), the reactions were carried out in a black 96-well microplate. All reactions were performed in Tris buffer (in mM: 150 NaCl, 1 CaCl2, 50 Tris-HCl: pH 8.0) and in the presence of endopeptidase inhibitors (0.1 mg/ml, bestatin hydrochloride—B8385, Sigma; 200 μM prolylendopeptidase inhibitor II, 537011, Merck Millipore) to eliminate the effect of widely abundant CNS endopeptidases on the assay. Known bovine thrombin concentrations (T-4648, Sigma) were used to create a calibration curve for each experiment. IC50 for inhibition of C6 glioma-generated thrombin activity by the molecules was measured in the medium secreted from the cells as described before ([19]). Briefly, C6 cells were seeded (5 × 10^4 cells/ml, 200 μl per well) and allowed to attach the well bottom for 24 h. […] The substrate was added and fluorescence was measured. […] Inhibition of commercial thrombin by SIXAC was measured by applying increasing concentrations of SIXAC (10^−12-10^−5M final concentration) to wells containing 0.05U/ml thrombin (final concentration). […] The sampled SIXAC was added to a constant concentration of thrombin (0.05 U/ml) and thrombin activity was measured. […] All other measures were calculated as a portion of the total activity.

CNS-1 glioma cells = experiment: CNS-1 glioma cell proliferation (XTT); format: cell-based, rat; conditions: SIXAC 1 μM, 72 h, FCS-free medium, p < 0.03
Method: (§1) CNS-1, C6, and U87 rat and human glioma cells were grown in Dulbecco's modified Eagle's medium (DMEM; Bet Haemek, Biological Industries, Israel) supplemented with 10% fetal bovine serum (Bet Haemek, Biological Industries, Israel) and 1% penicillin and streptomycin in a 5% CO2-humidified atmosphere.
(§2) Cell proliferation was evaluated using a 2.3-Bis-(2-methoxy-4-nitro-5-sulfophenyl)-2H-tetrazolium-5-carboxyanilide salt (XTT)-based cell proliferation assay kit (Bet Haemek, Biological Industries, Israel). U87 cells were seeded in 96-well plates (5 × 10^3 cells/well) and incubated for 24 h. The medium was then removed, the tested molecules (10^−13-10^−4 M final concentration) were added in FCS-free medium and introduced to the cells for 72 h. After choosing SIXAC as the leading molecule, it was tested in a similar way in CNS-1 cells (SIXAC 1 μM final concentration). XTT solution (50 μl) was added to each well and incubated for 3 h at 37°C. The optical density (OD) of each well was recorded at 450 and 630 nm in a microplate reader (Infinite M200, Tecan, Durham, NC, USA). Cell viability was expressed as the percentage (ODtest–ODblank)/(ODcontrol–ODblank), where ODtest is the optical density of cells exposed to SIXAC treatment, ODcontrol is the optical density of the control sample, and ODblank is the optical density of wells without glioma cells.

U87 glioma cells = experiment: U87 glioma cell proliferation (XTT); format: cell-based, human; conditions: 72 h
Method: as §1, §2

SMILES: Cc1ccc(S(=O)(=O)N[C@@H](C)C(=O)N[C@H](C(=O)N[C@@H](CC(C)C)C(=O)N[C@@H](CC(=O)O)C(=O)N2CCC[C@H]2C(=O)N[C@@H](CCCNC(=N)N)C(=O)CCl)[C@@H](C)O)cc1 [SIXAC] (Tos-ATLDPR-CH2Cl)
- stability: time for which SIXAC was stable and significantly inhibited thrombin [1]: ≥ 18 days
- CNS-1 cell proliferation rate (CNS-1 glioma cells): significantly decrease proliferation rate (p < 0.03); also recorded: significantly decrease the CNS-1 cell proliferation rate
- U87 proliferation rate ("inhibit proliferation at a rate of") (U87 glioma cells; 10^−5M, FCS-free medium, mean ± SEM, 3AACK vs. 6AACK p < 0.035): 0.2 ± 0.34
- U87 proliferation inhibition, ranking among the molecules (U87 glioma cells; 10^−13-10^−4 M, Figure 1D): found to inhibit the U87 proliferation rate the most
